In patent publication US10617695B2, “Ophthalmic compositions containing alcaftadine” (Vistakon Pharmaceuticals, LLC, priority 2006, dated 2020):

What was measured:
[1] = tested on: RBL-CCR1 (Rat Basophil Leukemia-Chemokine Receptor-1) cell line; assay: Mast cell degranulation / cell stabilization in RBL-CCR1 cells; format: cell-based
Protocol: The cell stabilization potential of alcaftadine was evaluated using the RBL-CCR1 (Rat Basophil Leukemia-Chemokine Receptor-1) cell line as a way of investigating its ability to effect mast cell stabilization. The use of basophil cell lines to assess anti-allergic drugs for cell stabilization potential is well established. Physiologically, basophils are similar to mast cells, containing pre-formed inflammatory mediators that are released through a similar degranulation process involving IgE cross-linking. Because these cell lines are readily available, they present efficiencies over conducting stabilization assays in mast cell lines.
Cultured RBL-CCR1 cells were sensitized to anti-DNP IgE. Following sensitization, cells were treated with various concentrations of alcaftadine or its major active metabolite (0.083%, 0.0083% and 0.00083%) or ophthalmic vehicle (placebo), and stimulated with DNP and/or MIP-1a (Macrophage Inflammatory Protein-1 alpha, a degranulation enhancer) to induce degranulation. A 10× and 100× placebo control solution (ophthalmic vehicle solution) in D-DEM (Dulbecco's modified Eagle's medium) was also employed.
However, co-stimulation induced a robust degranulation response.

[2] = target: T1, human histamine H4 receptor (Homo sapiens, UniProt Q9H3N8); assay: H4 receptor agonist assay: inhibition of forskolin-induced cAMP (reporter gene) in transfected SK-N-MC cells; format: cell-based
T1 construct: express a reporter gene construct and the human H4 receptor full-coding region; expressed in transfected cells; host or cells: SK-N-MC cells with a CRE-beta-galactosidase reporter
T1 sequence (Q9H3N8 whole entry): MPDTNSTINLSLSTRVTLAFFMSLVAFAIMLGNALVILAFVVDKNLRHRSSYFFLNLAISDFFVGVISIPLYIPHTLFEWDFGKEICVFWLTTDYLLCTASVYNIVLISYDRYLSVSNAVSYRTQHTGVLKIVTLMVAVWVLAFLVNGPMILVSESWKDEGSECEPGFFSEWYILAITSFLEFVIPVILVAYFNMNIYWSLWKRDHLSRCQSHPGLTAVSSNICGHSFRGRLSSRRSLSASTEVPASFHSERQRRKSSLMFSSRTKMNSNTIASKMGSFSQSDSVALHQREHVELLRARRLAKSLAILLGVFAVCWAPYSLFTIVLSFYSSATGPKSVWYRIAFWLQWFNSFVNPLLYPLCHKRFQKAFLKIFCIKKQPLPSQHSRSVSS
Protocol: (§1) Alcaftadine and 6,11-dihydro-11-(1-methyl-4-piperdinylidene)-5H-imidazo[2,1-b][3]benazepine-3-carboxylic acid (CAS #147083-93-0) were prepared at 10 mM in 100% dimethylsulfoxide (DMSO) for the binding assays and at 10 mM in Na/K phosphate buffer, pH 7.0, for the cellular assays. Cell pellets from SK-N-MC cells transfected with human H4 receptor were homogenized in 20 mM Tris-HCl/0.5 mM ethylendediaminetetraacetic acid (EDTA) pH 8.0 (TE buffer). Supernatants collected after centrifugation at 800 g were recentrifuged at 30,000 g for 30 min. Pellets were re-homogenized in TE buffer. […] Non-specific binding was defined with 100 μM cold histamine. […] Seven concentrations of compound were tested spanning 10^−11 to 10^−5 M with each concentration being run in triplicate. […] This assay was run twice and the results are reported as the average of the two runs. SK-N-MC cell lines were created that express a reporter gene construct and the human H4 receptor full-coding region. […] Color was quantitated on a microplate reader at absorbance 570 nm. […]
To test whether alcaftadine or 6,11-dihydro-11-(1-methyl-4-piperdinylidene)-5H-imidazo[2,1-b][3]benazepine-3-carboxylic acid (CAS #147083-93-0) were H4 receptor agonists, functional assays were carried out in SK-N-MC cells transfected with the human histamine H4 receptor. The ability of the compounds to inhibit forskolin-induced cAMP increases was assessed.

[3] = target: T1, human histamine H4 receptor; assay: H4 receptor antagonist assay: shift of histamine EC50, Schild plot, in transfected SK-N-MC cells; format: cell-based
Protocol: as §1, with “region. The reporter gene was β-galactosidase under the control of cyclic adenosine monophosphate (cAMP) responsive elements. Cells were plated in 96-well plates the night before the assay. Antagonists were added 10 min prior to the addition of histamine, which was added directly to the cell medium. Forskolin (5 μM final concentration) was added 10 min after the addition of histamine. Cells were returned to the incubator for 6 h at 37° C. The medium was then aspirated and cells were lysed with 25 μL of 0.1× assay buffer (10 mM sodium phosphate, pH 8, 0.2 mM MgSO4, 0.01 mM MnCl2) and incubated at room temperature for 10 min.” for “region.”
To test whether alcaftadine or 6,11-dihydro-11-(1-methyl-4-piperdinylidene)-5H-imidazo[2,1-b][3]benazepine-3-carboxylic acid (CAS #147083-93-0) were antagonists of the H4 receptor, the ability of the compounds shift the EC50 of the histamine inhibition of forskolin-induced cAMP increases was assessed in SK-N-MC cells transfected with the human histamine H4 receptor. […]

[4] = Systemic (plasma) levels of the carboxylic acid in patients; format: in vivo, human; conditions: for Cmax: plasma, other: ophthalmic solution, bilateral instillation, 0.25 % ophthalmic solution, 0.25% ophthalmic solution bilaterally
Protocol: Patients were bilaterally dosed with 0.25% ophthalmic solutions of 6,11-dihydro-11-(1-methyl-4-piperdinylidene)-5H-imidazo[2,1-b][3]benazepine-3-carboxylic acid for seven days. The plasma levels of those patients was assessed pre-dose, and 0.25, 0.5, 1, 1.5, 2, 3, 4, 6, 8, 12, and 18 hour post medication instillation on days one and seven.

[5] = target: T1, human histamine H4 receptor; assay: [3H]histamine competition binding to membranes of SK-N-MC cells transfected with human H4 receptor; conditions: average of two runs; 10 nM [3H]histamine; Cheng and Prusoff

## CN1CCC(=C2c3ccccc3CCn3c(C(=O)O)cnc32)CC1 [6,11-dihydro-11-(1-methyl-4-piperdinylidene)-5H-imidazo[2,1-b][3]benazepine-3-carboxylic acid]
[1]
  overall membrane stabilization: effective membrane stabilizing agents
[1]; 10× dose level
  stabilization effect added to that of placebo: enhanced the stabilization effect
[1]; […], DNP-HSA alone, MIP-1a alone, and co-stimulation
  degranulation at the highest concentration: unanticipated and significant degranulation
[1]; co-stimulation assay, concentrations of […] and […], p<0.0001 for both concentrations
  cell stabilization compared to co-stimulation control and negative controls (placebo 10× and placebo 100×): superior at cell stabilization
[2]; absence of histamine, read-out: agonist activity: inhibition of forskolin-induced cAMP levels (highest concentration without agonism)
  EC50: > 100 µM
[3]
  antagonist activity: shift of histamine EC50 (highest concentration without shift): > 100 µM
[4]; human, in vivo
  maximum plasma concentrations: 7.23 ng/mL
[4]; human, Day 1
  Cmax: 3.23 ng/mL
[4]; human, Day 7
  Cmax: 2.71 ng/mL
[4]; post dosing, lower limit of quantification 0.1 ng/mL
  time by which plasma concentrations declined to below the lower limit of quantification: ≤ 12 h
[5]
  Ki: > 10 µM

## NCCc1c[nH]cn1 [histamine, reference compound]
[2]
  agonist activity: inhibition of forskolin-induced cAMP levels: agonist
